In PubChem BioAssay (NCI):
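48-hour exposure; five concentrations; linearly interpolated endpoints. GI50 = concentration required for 50% inhibition of growth. TGI: concentration producing complete growth inhibition.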 *1 amine or outer side, *2 acyl side, *3 side chain or, on linkers, in order; H or OH if unused. Where a SMILES comes first, the peptide text is derived from it. [ ]: non-standard residue; d: D form. X33 = C=CCC(O[*:1])C(=O)[*:2]; NMeV = CN[CH](C(=O)O)C(C)C; NMeA = CN[CH](C)C(=O)O; βAla = NCCC(=O)O

Key:
Assay in all cases: NCI tumour cell line growth inhibition, 48 h
A549 NSCLC = system: A549 NSCLC
EKVX NSCLC = system: EKVX NSCLC
HT29 colon = system: HT29 colon
NCI-H460 lung = system: NCI-H460 lung
UO-31 renal = system: UO-31 renal
NCI-H522 lung = system: NCI-H522 lung
OVCAR-3 ovarian = system: OVCAR-3 ovarian
HS 578T breast = system: HS 578T breast
MDA-MB-435 = system: MDA-MB-435
SK-MEL-5 melanoma = system: SK-MEL-5 melanoma

Compound | TGI (A549 NSCLC) [µM] | TGI (EKVX NSCLC) [µM] | TGI (HT29 colon) [µM] | TGI (NCI-H460 lung) [µM] | TGI (UO-31 renal) [µM] | TGI (NCI-H522 lung) [µM] | TGI (OVCAR-3 ovarian) [µM] | TGI (HS 578T breast) [µM] | TGI (MDA-MB-435) [µM] | TGI (SK-MEL-5 melanoma) [µM] | GI50 (A549 NSCLC) [µM] | GI50 (HS 578T breast) [µM] | GI50 (MDA-MB-435) [µM] | GI50 (EKVX NSCLC) [µM] | GI50 (HT29 colon) [µM] | GI50 (NCI-H460 lung) [µM] | GI50 (SK-MEL-5 melanoma) [µM] | GI50 (UO-31 renal) [µM] | GI50 (NCI-H522 lung) [µM] | GI50 (OVCAR-3 ovarian) [µM]
CC(c1ccccc1)/[N+]([O-])=C/c1ccccc1 (stereo not given) | > 100 | > 100 | > 100 | > 100 | > 100 | > 100 | > 100 |  |  |  |  |  |  |  |  |  |  |  |  | 
Nc1nc(N)c2[nH]cnc2n1 (tested in a mixture with another compound) | 47.4 | 60.1 | > 100 | 63.4 | 58.4 | 54.2 | 74.4 | > 100 | 77.5 | 85.3 |  |  |  |  |  |  |  |  |  | 
C=CCC1OC(=O)CCNC(=O)C(C)N(C)C(=O)C(C(C)C)N(C)C(=O)C(C(C)CC)NC(=O)C2CCCN2C1=O (stereo not given) (cyclo([X33]PI[NMeV][NMeA][βAla]); configuration not given here) | > 100 | > 100 | > 100 | > 100 | 47.5 | > 100 | > 100 | > 100 | > 100 | 6.12 |  |  |  |  |  |  |  |  |  | 
Cc1ccc2c(C)c3ccc4ccccc4c3c[n+]2c1 | > 100 | > 100 | > 100 | 35.2 | > 100 | 28.3 | 38.1 |  |  | 25.4 |  |  |  |  |  |  |  |  |  | 
C/C(=N\NC(=S)Nc1ccc(C)cc1)c1nc2ncccc2[nH]1 | 44.7 | 7.27 | 14.5 | 13.6 | 4.05 |  | 9.71 | 58.9 | 13.3 | 4.73 |  |  |  |  |  |  |  |  |  | 
CC1OC1C(=O)C1(O)C(C)C(O)C23OC2(C(O)c2c(O)cccc2C3=O)C1O (stereo not given) | 0.519 | 0.541 | 0.629 | 0.565 | 0.565 | 0.338 | 0.352 |  |  | 0.534 |  |  |  |  |  |  |  |  |  | 
CCSc1nc(=[N+]2CCCC2)ss1 | > 100 | > 100 | > 92.1 | > 100 | > 100 | > 100 | 48.2 | > 100 | 42.5 | 3.55 |  |  |  |  |  |  |  |  |  | 
COc1ccc(-c2c3c(nc4nc(SC)nc(SC)c24)CCCC3)cc1OC | > 100 | > 100 | > 100 | > 100 | > 100 | > 100 | > 100 | 86.3 | > 100 | > 100 |  |  |  |  |  |  |  |  |  | 
C[C@]12CCc3sc(Nc4ccc(O)cc4)nc3C1=CC[C@@H]1[C@@H]2CC[C@]2(C)C(=O)CC[C@@H]12 | > 100 | > 100 | 5.59 | 10.5 | 2.9 | 2.96 | 3.38 | > 100 | 5.32 | 31.9 | 4.42 | 3.38 | 2.08 | 10.4 | 2.13 | 3.01 | 4.33 | 1.54 | 1.42 | 1.71
CN1CCN(c2cc(-c3cc4ccccc4o3)oc(=O)c2C#N)CC1 | > 100 | > 100 | > 100 | > 100 | > 100 |  |  |  |  | > 100 |  |  |  |  |  |  |  |  |  | 
CCOP(=O)(CN=C(c1ccccc1)c1ccccc1)OCC | > 100 |  | > 100 | > 100 | > 100 | > 100 | > 100 | > 100 | > 100 | > 100 |  |  |  |  |  |  |  |  |  | 
O=C(NN1C(=O)CSC1c1ccc(C(F)(F)F)cc1)c1ccncc1 (stereo not given) | > 100 | > 100 | > 100 | > 100 | > 100 | > 100 | > 100 |  |  | > 100 |  |  |  |  |  |  |  |  |  | 
NC(=S)N/N=C1\c2ccccc2CCC1CCC1(O)CCc2ccccc2C1=O (stereo not given) | > 100 | 59.5 | 45.9 | 32.1 | 29.4 |  | 36.3 | 63 | 46.4 | 28.3 |  |  |  |  |  |  |  |  |  | 
O=C1OCC/C1=C/c1ccc(N=Nc2c(O)ccc3ccccc23)cc1 | 44.7 | 41.8 | 35 | 47.3 | 37.3 | 41.8 | 34.4 | 54.3 | 56.5 | 50.8 |  |  |  |  |  |  |  |  |  | 
Cc1ccc(Nc2nc(NS(=O)(=O)c3cc(C(=O)Nc4ccc(Cl)cc4)c(Cl)cc3S)n[nH]2)cc1 | > 100 | > 100 | > 100 | > 100 | > 100 |  | > 100 | > 100 | > 100 | > 100 |  |  |  |  |  |  |  |  |  | 
CCc1nnc(-c2nsc3ccccc23)s1 | > 100 | > 100 | > 100 | > 100 | > 100 |  | > 100 |  |  | > 100 |  |  |  |  |  |  |  |  |  | 
CC(CCC(=O)O)C1CCC2C3C(O)CC4CC(O)CCC4(C)C3CC(O)C12C (stereo not given) | > 100 | > 100 | > 100 | > 100 | > 100 | > 100 | > 100 | > 100 | > 100 | > 100 |  |  |  |  |  |  |  |  |  | 
COC1=CC(=O)c2c(O)c3c(c(O)c2C1=O)C=C(C)OC3O (stereo not given) | 4.35 | 20.2 | 2.7 | 3.18 | 13.3 | 3.95 | 6.33 | 7.9 | 2.5 | 0.66 |  |  |  |  |  |  |  |  |  | 
